Patent publication US5059590A, “Imidazole derivatives, process for production thereof, and use thereof” (Yamasa Shoyu Kabushiki Kaisha, priority 1988, dated 1991)
Converted amounts (≈) assume the structure as drawn.

Tests used:
[1] = system: L1210 mouse leukemia cells; experiment: In vitro anti-proliferative activity against mouse tumor cell lines, Test Method 1 (L1210); assay type: cell-based; settings: L1210, 48 hours, 37° C.
Description: (§1) In vitro anti-proliferative activity against mouse tumor cell lines
1. L1210 mouse leukemia cells are cultivated in RPMI1640 medium supplemented with 10% fetal bovine serum, and the resultant cells are diluted with the same medium in the logarithmic growth phase to a concentration of 1.6×10^5 cells/ml.
2. To test tubes each containing 0.9 ml of the above obtained diluted cell suspension is added 0.1 ml each of test solutions serially diluted with a culture medium or phosphate-buffered saline (PBS), and the mixture is incubated in a 2% CO2 -incubator at 37° C. for 48 hours.
3. After incubation, the number of the cells in each tube is counted with a Coulter counter (Model ZB, Coulter Electronics), and the growth inhibition percent (%) of the cells at each concentration of a test compound is calculated from the following equation: [formula] Tx: Number of the cells in a test tube containing a test compound as counted upon completion of the incubation (cells/ml)
Cx: Number of the cells in a test tube containing no test compound as counted upon completion of the incubation (cells/ml)
Co: Number of the cells in a test tube containing no test compound as counted at the initiation of the incubation (cells/ml)
4. The concentration of the test compound, which causes cell growth inhibition by 50%, is determined by the graph showing the relationship between the growth inhibition percent and the concentration of the test compound, and is defined as 50% inhibitory concentration (IC50).

[2] = system: Mouse lymphoma cell line P388; experiment: In vitro anti-proliferative activity against mouse tumor cell lines, Test Method 2 (P388); assay type: cell-based; settings: P388, 48 hours, 37° C.
Description: as §1
1. Mouse lymphoma cell line P388 or mouse sarcoma 180 is suspended in RPMI1640 medium supplemented with 10% fetal bovine serum and 2 μM 2-hydroxyethyl disulfide to a concentration of 10^5 cells/ml. Test compounds are serially diluted with the same medium.
2. 0.5 ml of the cell suspension thus obtained is admixed with 0.5 ml of the medium or the test compound solution, and the mixture is incubated in a 5% CO2 -incubator at 37° C. for 48 hours. The incubation is carried out in glass culture tubes.
3. At the end of incubation, the number of the cells in each tube is counted with a Coulter counter (Model ZB, Coulter Electronics), and the growth inhibition percent (%) is calculated from the same equation as in Test Method 1.
4. The IC50 value is obtained as in Test Method I.

U-2OS = experiment: In vitro anti-proliferative activity against human tumor cell lines (U-2OS); assay type: cell-based; settings: U2OS, Osteogenic sarcoma, 72 hours
Description: (§2) In vitro anti-proliferative activity against human tumor cell lines
(§3) Test Compound: 5-ethynyl-1-β-D-ribofuranosylimidazole-4-carboxamide
(§4) A variety of human tumor cell lines are suspended in media specified according to the species of the cell lines to predetermined cell concentrations as shown in the following Table.
(§5) 1 ml of the resulting cell suspension is seeded into each well of a 24 multi-well plate and incubated in a 5% CO2 -incubator at 37° C. for 24 hours. The culture medium is then replaced by a medium containing no test compound or by an appropriate amount of a serially diluted test compound solution. […] The number of the cells in each well is counted with a Coulter counter (Model ZB, Coulter Electronics), and the growth inhibition percent (%) of the cells at each concentration of a test compound is determined by the following equation: [formula] Tx: Number of the cells in a well containing a test compound as counted upon completion of the incubation (cells/ml) […] Cx: Number of the cells in a well containing no test compound as counted upon completion of the incubation (cells/ml)
(§6) Co: Number of the cells in a well containing no test compound as counted at the initiation of the incubation (cells/ml) […]

SK-MES-1 = experiment: In vitro anti-proliferative activity against human tumor cell lines (SK-MES-1); assay type: cell-based; settings: SK-MES-1, Lung Squamous carcinoma, 72 hours
Description: as §2, §3, §4, §5, §6

A549 = experiment: In vitro anti-proliferative activity against human tumor cell lines (A549); assay type: cell-based; settings: A549, Lung carcinoma, 72 hours
Description: as §2, §3, §4, §5, §6

HeLa = experiment: In vitro anti-proliferative activity against human tumor cell lines (HeLa); assay type: cell-based; settings: Cervical carcinoma, 72 hours
Description: as §2, §3, §4, §5, §6

Dul45 = experiment: In vitro anti-proliferative activity against human tumor cell lines (Dul45); assay type: cell-based; settings: Dul45, Prostate carcinoma, 72 hours
Description: as §2, §3, §4, §5, §6

PANC-1 = experiment: In vitro anti-proliferative activity against human tumor cell lines (PANC-1); assay type: cell-based; settings: PANC-1, Pancreatic carcinoma, 72 hours
Description: as §2, §3, §4, §5, §6

[3] = system: human gastric cancer cells, 4-1ST; experiment: In vivo antitumor activity against human gastric cancer cells, 4-1ST, subcutaneously implanted into nude mice; settings: for Body weight / T/C (%) / Tumor growth rate (Rt): 125 mg/kg i.v. days 10, 14, 18
Description: In vivo antitumor activity against human gastric cancer cells, 4-1ST, subcutaneously implanted into nude mice
Human gastric cancer cells, 4-1ST(ca. 8 mm^3), are subcutaneously implanted at the ventral site of nude mice (BALB/c-nu/nu, female, 5 weeks old). Ten days after the implantation when the tumor volume reaches 150 to 300 mm^3, the mice are divided into groups (6 mice/group), and the treatment with a test drug was started.
5-Ethynyl-1-β-D-ribofuranosylimidazole-4-carboxamide is dissolved in distilled water and intravenously administered to the mice at a dose of 125 mg/kg on days 10, 14 and 18 after the implantation of the tumor, the volume of the drug solution being 0.1 ml per 10 g of the body weight of the mouse.
Each mouse is weighed, and width (a mm) and length (b mm) of the tumor thereof are measured twice a week to determine the tumor volume (A mm^3) from the following equation: […]
Subsequently, the tumor growth rate (R) is determined as follows on the basis of the tumor volume (A10) on day 10 after the implantation of the tumor cells:
R: Tumor growth rate after a predetermined period from the tumor implantation
A: Tumor volume after a predetermined period from the tumor implantation
A10 : Tumor volume as determined 10 days after the tumor implantation
T/C (%) is further obtained from the following equation by comparison between the tumor growth rate in the test group (Rt) and that in the control group (Rc):
Test group: 125 mg/kg of the drug was intravenously administered on days
10, 14 and 18 after the tumor implantation.

[4] = day 22, * = P < 0.05 vs control
[5] = day 25, * = P < 0.05 vs control

IC50 [1]: 0.18 µg/mL (≈ 0.674 µM)
IC50 [2]: 0.16 µg/mL (≈ 0.599 µM)
IC50 (U-2OS): 0.62 µg/mL (≈ 2.32 µM)
IC50 (SK-MES-1): 0.26 µg/mL (≈ 0.973 µM)
IC50 (A549): 0.37 µg/mL (≈ 1.38 µM)
IC50 (HeLa): 0.3 µg/mL (≈ 1.12 µM)
IC50 (Dul45): < 0.1 µg/mL
IC50 (PANC-1): 0.9 µg/mL (≈ 3.37 µM)
Structure (SMILES): C#Cc1c(C(N)=O)ncn1[C@@H]1O[C@H](CO)[C@@H](O)[C@H]1O [5-ethynyl-1-β-D-ribofuranosylimidazole-4-carboxamide]
antitumor activity ([3]; 125 mg/kg every 4 days 3 times in total, i.v.): remarkable antitumor activity
Body weight ([3]; day 10 after implantation): 20 g
T/C (%) ([3]; day 10 after implantation): 100%
Tumor growth rate (Rt) ([3]; day 10 after implantation): 1.0
Body weight ([3]; day 14): 21 g
T/C (%) ([3]; day 14): 67%
Tumor growth rate (Rt) ([3]; day 14): 3.0
Body weight ([3]; day 17): 21 g
T/C (%) ([3]; day 17): 67%
Tumor growth rate (Rt) ([3]; day 17): 5.1
Body weight ([3]; day 22): 22 g
T/C (%) [3, 4]: 60%
Tumor growth rate (Rt) [3, 4]: 8.0
Body weight ([3]; day 25): 23 g
T/C (%) [3, 5]: 63%
Tumor growth rate (Rt) [3, 5]: 12
Body weight ([3]; day 28): 23 g
T/C (%) ([3]; day 28): 67%
Tumor growth rate (Rt) ([3]; day 28): 16
Body weight ([3]; day 31): 24 g
T/C (%) ([3]; day 31): 71%
Tumor growth rate (Rt) ([3]; day 31): 20
Body weight ([3]; day 35): 23 g
T/C (%) ([3]; day 35): 77%
Tumor growth rate (Rt) ([3]; day 35): 30
